Results published in US20220305012A1, “L[…] TREATING SLEEP ISSUES” (EISAI R&D MANAGEMENT CO., LTD., priority 2019, published 2022).

Legend:
Format in all cases: in vivo, human
[1] = test system: Subjects Having Insomnia Disorder; test: Example 2: return to sleep latency
[2] = test system: Subjects Having Insomnia Disorder; test: Example 2: total sleep time (TST), polysomnography
Protocol: In some embodiments, a sleep parameter is determined objectively using polysomnography. Polysomnography is the monitoring of multiple electrophysiological parameters during sleep and generally includes measurement of EEG activity, electro-oculographic activity and electromyographic activity, as well as other measurements.
TST—total sleep time: minutes of sleep from sleep onset until terminal awakening.
(§1) The treatment period lasted for 31 days. Subjects were randomized in a double-blind manner and received placebo, a tablet containing 5 mg of lemborexant, a tablet containing 10 mg of lemborexant, or a tablet containing 6.25 mg of zolpidem ER.
Within 5 minutes of the subject's mean habitual bedtime, study drug was administered and an overnight polysomnogram recording was initiated. At completion of the recording the following morning (Day 2), postural stability and cognitive performance were assessed. On the Day 2 evening, subjects returned to the clinic and a blood sample was collected before administering study drug, and then study drug was administered within 5 minutes of the subject's mean habitual bedtime. Again, a polysomnogram recording was initiated. The next morning (Day 3), postural stability and cognitive performance were assessed. A blood sample was also collected.
On Day 29, subjects returned to the clinic. Study drug was administered within 5 minutes of the subject's mean habitual bedtime and a polysomnogram recording was conducted. On the following morning (Day 30), postural stability and cognitive performance were assessed. After 1.5 hours of waketime, subjects rated their morning sleepiness level.
On the evening of Day 30, subjects returned to the clinic. A pre-dose blood sample was collected and study drug was again administered within 5 minutes of the subject's mean habitual bedtime. A polysomnogram recording was initiated. The following morning (Day 31), postural stability and cognitive performance were assessed and a blood sample was obtained. The ISI, FSS, EQ-5D-3L and PGI-Insomnia were administered. Blood and urine samples were collected for routine safety assessment. An electrocardiogram was performed, and vital signs and weight were assessed. The eC-SSRS was then administered to the subject. At 1.5 hours after waketime, subjects rated their morning sleepiness level.

[3] = test system: Subjects Having Insomnia Disorder; test: Example 2: subjective sleep efficiency (sSE), sleep diary
Excerpt: As used herein, the term “subjective sleep efficiency”, abbreviated as “sSE”, means the proportion of sTST per subjective time spent in bed, calculated as the interval from the time the subject reports attempting to sleep until the time the subject stopped trying to sleep for the night (operationalized as the time the subject got out of bed for the day), and time spent asleep derived from subjective time spent in bed minus sWASO. As used herein, an “improvement of sleep efficiency in Subjective Sleep Efficiency (sSE)” means an increase in sleep efficiency in Subjective Sleep Efficiency (sSE).
(§2) In some embodiments, sleep diaries were used to assess sleep parameters reported by subjects (i.e., subjective assessments) including subjective sleep onset latency (sSOL), subjective sleep efficiency (sSE), subjective WASO (sWASO), and subjective total sleep time (sTST). Subjects were instructed to complete the Sleep Diary developed based on the consensus Sleep Diary as described in Carney et al., “The consensus sleep diary: standardizing prospective sleep self-monitoring,” Sleep 2012; 35(2):287-302. In some embodiments, the Sleep Diary was used to assess the subject's global perception of quality of sleep on the previous night with the following question: “How would you rate the quality of your sleep last night?” Subjects rated the quality of their sleep on a scale from 1 to 9, with 1 being extremely poor and 9 being extremely good. In some embodiments, the Sleep Diary was used to assess subjective ratings of morning sleepiness with the following question: “How alert/sleepy do you feel this morning?” Subjects rated their sleepiness/alertness level on a Likert scale from 1 to 9, with 1 being extremely sleepy and 9 being extremely alert.
sSE—subjective sleep efficiency: proportion of sTST per subjective time spent in bed, calculated as the interval from the time the subject reports attempting to sleep until the time the subject stopped trying to sleep for the night (operationalized as the time the subject got out of bed for the day), and time spent asleep derived from subjective time in bed minus sWASO.
as §1
(§3) Once home, the subject ingested study drug each night prior to bedtime and completed their sleep diary within 1 hour of waketime.

[4] = test system: Subjects Having Insomnia Disorder; test: Example 2: subjective total sleep time (sTST), sleep diary
Excerpt: As used herein, the term “subjective total sleep time”, abbreviated as “sTST”, means the derived minutes of sleep from sleep onset until the time the subject stopped trying to sleep for the night. In some embodiments, sTST is derived from data entered in a subject's Sleep Diary.
as §2
sTST—subjective total sleep time: derived minutes of sleep from sleep onset until the time the subject stopped trying to sleep for the night.
as §1, §3

[5] = test system: Subjects Having Insomnia Disorder; test: Example 2: subjective wake after sleep onset (sWASO), sleep diary
Excerpt: As used herein, the term “subjective wake after sleep onset”, abbreviated as “sWASO”, means the sum of estimated minutes of wake during the night after initial sleep onset until the time the subject stopped trying to sleep for the night, operationalized as the time the subject got out of bed for the day. In some embodiments, sWASO is derived from data entered in a subject's Sleep Diary. As used herein, an “improvement of sWASO” means a reduction in sWASO.
as §2
sWASO—subjective wake after sleep onset: sum of estimated minutes of wake during the night after initial sleep onset until the time the subject stopped trying to sleep for the night, operationalized as the time the subject got out of bed for the day.
as §1, §3

[6] = First 7 Nights of Treatment, Lemborexant 5 mg
[7] = First 7 Nights of Treatment, Lemborexant 10 mg
[8] = Last 7 Nights of Treatment, Lemborexant 5 mg
[9] = Last 7 Nights of Treatment, Lemborexant 10 mg

Compound: Cc1ncc(OC[C@@]2(c3cccc(F)c3)C[C@H]2C(=O)Nc2ccc(F)cn2)c(C)n1 [Lemborexant, (1R,2S)-2-(((2,4-dimethylpyrimidin-5-yl)oxy)methyl)-2-(3-fluorophenyl)-N-(5-fluoropyridin-2-yl)cyclopropanecarboxamide]
- Return to Sleep Latency, LSM - Difference vs. Placebo ([1]; Lemborexant 5 mg): -22.5 min
- Return to Sleep Latency, Mean (SD) change from baseline ([1]; Lemborexant 5 mg): -22.8 min
- Return to Sleep Latency, Postdose ([1]; Lemborexant 5 mg): 18.1 min
- Return to Sleep Latency, LSM - Difference vs. Placebo ([1]; Lemborexant 10 mg): -28.7 min
- Return to Sleep Latency, Mean (SD) change from baseline ([1]; Lemborexant 10 mg): -28.7 min
- Return to Sleep Latency, Postdose ([1]; Lemborexant 10 mg): 12.1 min
- return to sleep latency ([1]; both doses, vs placebo and zolpidem (Table 28)): greater reduction in return to sleep latency than treatment with placebo and zolpidem
- Total Sleep Time, Change from Study Baseline, Mean (SD) ([2]; Days 1/2, Lemborexant 5 mg): 65.22 (46.695)
- Total Sleep Time, Change from Study Baseline, Median ([2]; Days 1/2, Lemborexant 5 mg): 59.50
- Total Sleep Time, Mean (SD) ([2]; Days 1/2, Lemborexant 5 mg): 393.22 (40.346)
- Total Sleep Time, Median ([2]; Days 1/2, Lemborexant 5 mg): 400.63
- Total Sleep Time, Change from Study Baseline, Mean (SD) ([2]; Days 1/2, Lemborexant 10 mg): 79.58 (47.350)
- Total Sleep Time, Change from Study Baseline, Median ([2]; Days 1/2, Lemborexant 10 mg): 74.25
- Total Sleep Time, Mean (SD) ([2]; Days 1/2, Lemborexant 10 mg): 404.65 (36.593)
- Total Sleep Time, Median ([2]; Days 1/2, Lemborexant 10 mg): 411.50
- Total Sleep Time, Change from Study Baseline, LSM treatment difference: Lemborexant-Zolpidem ([2]; Days 29/30, Lemborexant 5 mg): 19.41 (3.457)
- Total Sleep Time, Change from Study Baseline, Mean (SD) ([2]; Days 29/30, Lemborexant 5 mg): 61.99 (46.817)
- Total Sleep Time, Change from Study Baseline, Median ([2]; Days 29/30, Lemborexant 5 mg): 56.50
- Total Sleep Time, Mean (SD) ([2]; Days 29/30, Lemborexant 5 mg): 389.97 (42.437)
- Total Sleep Time, Median ([2]; Days 29/30, Lemborexant 5 mg): 399.63
- Total Sleep Time, Change from Study Baseline, LSM treatment difference: Lemborexant-Zolpidem ([2]; Days 29/30, Lemborexant 10 mg): 24.10 (3.456)
- Total Sleep Time, Change from Study Baseline, Mean (SD) ([2]; Days 29/30, Lemborexant 10 mg): 67.86 (52.117)
- Total Sleep Time, Change from Study Baseline, Median ([2]; Days 29/30, Lemborexant 10 mg): 65.13
- Total Sleep Time, Mean (SD) ([2]; Days 29/30, Lemborexant 10 mg): 393.16 (42.827)
- Total Sleep Time, Median ([2]; Days 29/30, Lemborexant 10 mg): 400.88
- mean total sleep time ([2]; all lemborexant treatment groups, relative to baseline, placebo and zolpidem treatment groups (Table 17)): increased
- mean subjective sleep efficiency ([3]; 10 mg, relative to baseline, placebo and zolpidem treatment groups (Table 19)): increased
- Subjective Sleep Efficiency, Change from Study Baseline, Mean (SD) [3, 6]: 10.56 (12.296)
- Subjective Sleep Efficiency, Mean (SD) [3, 6]: 65.96 (18.203)
- Subjective Sleep Efficiency, Model-adjusted change from baseline [3, 6]: 10.74
- Subjective Sleep Efficiency, Change from Study Baseline, Mean (SD) [3, 7]: 13.97 (14.188)
- Subjective Sleep Efficiency, Mean (SD) [3, 7]: 68.10 (18.356)
- Subjective Sleep Efficiency, Model-adjusted change from baseline [3, 7]: 13.81
- Subjective Sleep Efficiency, Change from Study Baseline, Mean (SD) [3, 8]: 12.92 (13.884)
- Subjective Sleep Efficiency, Mean (SD) [3, 8]: 68.19 (19.251)
- Subjective Sleep Efficiency, Model-adjusted change from baseline [3, 8]: 13.29
- Subjective Sleep Efficiency, Change from Study Baseline, Mean (SD) [3, 9]: 16.12 (16.3000)
- Subjective Sleep Efficiency, Mean (SD) [3, 9]: 69.92 (19.098)
- Subjective Sleep Efficiency, Model-adjusted change from baseline [3, 9]: 15.87
- mean subjective total sleep time ([4]; 10 mg, relative to baseline, placebo and zolpidem treatment groups (Table 21)): increased
- Subjective Total Sleep Time, Change from Study Baseline, Mean (SD) [4, 6]: 50.30 (60.065)
- Subjective Total Sleep Time, Mean (SD) [4, 6]: 322.66 (89.706)
- Subjective Total Sleep Time, Model-adjusted change from baseline [4, 6]: 51.14
- Subjective Total Sleep Time, Change from Study Baseline, Mean (SD) [4, 7]: 67.80 (71.134)
- Subjective Total Sleep Time, Mean (SD) [4, 7]: 332.92 (91.538)
- Subjective Total Sleep Time, Model-adjusted change from baseline [4, 7]: 66.59
- Subjective Total Sleep Time, Change from Study Baseline, Mean (SD) [4, 8]: 62.41 (68.555)
- Subjective Total Sleep Time, Mean (SD) [4, 8]: 334.22 (94.339)
- Subjective Total Sleep Time, Model-adjusted change from baseline [4, 8]: 64.22
- Subjective Total Sleep Time, Change from Study Baseline, Mean (SD) [4, 9]: 79.95 (81.211)
- Subjective Total Sleep Time, Mean (SD) [4, 9]: 343.68 (95.785)
- Subjective Total Sleep Time, Model-adjusted change from baseline [4, 9]: 78.47
- mean subjective wake after sleep onset ([5]; 10 mg, relative to baseline, placebo and zolpidem treatment groups (Table 20)): reduced
- Subjective Wake After Sleep Onset, Change from Study Baseline, Mean (SD) [5, 6]: −39.33 (55.022)
- Subjective Wake After Sleep Onset, Mean (SD) [5, 6]: 127.37 (78.303)
- Subjective Wake After Sleep Onset, Model-adjusted change from baseline [5, 6]: −39.97
- Subjective Wake After Sleep Onset, Change from Study Baseline, Mean (SD) [5, 7]: −55.06 (66.696)
- Subjective Wake After Sleep Onset, Mean (SD) [5, 7]: 119.78 (74.825)
- Subjective Wake After Sleep Onset, Model-adjusted change from baseline [5, 7]: −53.90
- Subjective Wake After Sleep Onset, Change from Study Baseline, Mean (SD) [5, 8]: −44.51 (58.090)
- Subjective Wake After Sleep Onset, Mean (SD) [5, 8]: 119.30 (81.645)
- Subjective Wake After Sleep Onset, Model-adjusted change from baseline [5, 8]: −47.55
- Subjective Wake After Sleep Onset, Change from Study Baseline, Mean (SD) [5, 9]: −57.96 (72.791)
- Subjective Wake After Sleep Onset, Mean (SD) [5, 9]: 117.08 (83.753)
- Subjective Wake After Sleep Onset, Model-adjusted change from baseline [5, 9]: −56.64
